Experimental data reported in patent EP0412877A1, “Oral galenic form to improve bioavailability” (priority 1989, dated 1991).
Read-outs that look alike come from different tables or passages of the source.

Tests used:
[1] = In vitro dissolution kinetics in distilled water and intestinal juice; assay type: physicochemical; conditions: eau distillée and suc intestinal
[2] = Dissolution kinetics of dihydropyridines (figure 7); assay type: physicochemical; conditions: Nifédipine à l'état brut, oxodipine à l'état de coprécipité, without PROSOBEL
Text: On peut en conclure que le PROSOBEL, de façon très inattendue pour l'homme de métier, ralentit la dissolution en milieu aqueux, et permet l'obtention de formes pharmaceutiques originales et nouvelles, de dihydropyridines à biodisponibilité contrôlée.

[3] = human, in vivo, 0 min
Experimental: (§1) Des comprimés selon l'exemple 3, dosés à 15, 20 et 25mg d'oxodipine, ont été administrés à 6 volontaires sains.

[4] = human, in vivo
[5] = Solubility in water (stated in words); conditions: result in words
[6] = Plasma concentrations after single oral administration of oxodipine forms to 6 healthy subjects; conditions: human, 20 mg
Experimental: as §1

SMILES: CCOC(=O)C1=C(C)NC(C)=C(C(=O)OC)C1c1cccc2c1OCO2 (centres unmarked) [Poudre 20mg, 1,4-dihydro 4-(2′,3′-méthylènedioxyphényl) 3,5-pyridine dicarboxylatede méthyle et d'éthyle]
- cinétique de dissolution in vitro [1]: lente et limitée
- cinétiques de dissolution [2]: très rapides
- Concentration [3]: 0,0 ng/ml
- % DE DOSE ENTRES DANS L'ORGANISME APRES ABSORPTION ET PASSAGE HEPATIQUE ([4]; 10.2 min): 2,5%
- % DE DOSE ENTRES DANS L'ORGANISME APRES ABSORPTION ET PASSAGE HEPATIQUE ([4]; 19.8 min): 1,6%
- % DE DOSE ENTRES DANS L'ORGANISME APRES ABSORPTION ET PASSAGE HEPATIQUE ([4]; 30 min): 4,5%
- % DE DOSE ENTRES DANS L'ORGANISME APRES ABSORPTION ET PASSAGE HEPATIQUE ([4]; 39.6 min): 6,6%
- % DE DOSE ENTRES DANS L'ORGANISME APRES ABSORPTION ET PASSAGE HEPATIQUE ([4]; 49.8 min): 7,0%
- % DE DOSE ENTRES DANS L'ORGANISME APRES ABSORPTION ET PASSAGE HEPATIQUE ([4]; 60 min): 9,3%
- % DE DOSE ENTRES DANS L'ORGANISME APRES ABSORPTION ET PASSAGE HEPATIQUE ([4]; 75 min): 11%
- % DE DOSE ENTRES DANS L'ORGANISME APRES ABSORPTION ET PASSAGE HEPATIQUE ([4]; 90 min): 11,4%
- % DE DOSE ENTRES DANS L'ORGANISME APRES ABSORPTION ET PASSAGE HEPATIQUE ([4]; 120 min): 14,0%
- % DE DOSE ENTRES DANS L'ORGANISME APRES ABSORPTION ET PASSAGE HEPATIQUE ([4]; 180 min): 16,6%
- % DE DOSE ENTRES DANS L'ORGANISME APRES ABSORPTION ET PASSAGE HEPATIQUE ([4]; 240 min): 18%
- % DE DOSE ENTRES DANS L'ORGANISME APRES ABSORPTION ET PASSAGE HEPATIQUE ([4]; 360 min): 19,8%
- % DE DOSE ENTRES DANS L'ORGANISME APRES ABSORPTION ET PASSAGE HEPATIQUE ([4]; 480 min): 21,2%
- % DE DOSE ENTRES DANS L'ORGANISME APRES ABSORPTION ET PASSAGE HEPATIQUE ([4]; 600 min): 22,6%
- % DE DOSE ENTRES DANS L'ORGANISME APRES ABSORPTION ET PASSAGE HEPATIQUE ([4]; 720 min): 23,8%
- biodisponibilité ([4]; 720 min): 31%
- BIODIOPONIBILITE RELATIVE PAR RAPPORT A LA SOLUTION ([4]; po): 31%
- solubilité dans l'eau [5]: faible
- concentration at 0.17 h [6]: 1.2 ng/mL
- concentration at 0.33 h [6]: 1.4 ng/mL
- concentration at 0.5 h [6]: 2.7 ng/mL
- concentration at 0.66 h [6]: 4.2 ng/mL
- concentration at 0.83 h [6]: 5 ng/mL
- concentration at 1 h [6]: 6 ng/mL
- concentration at 1.25 h [6]: 6.8 ng/mL
- concentration at 1.5 h [6]: 6.5 ng/mL
- concentration at 2 h [6]: 6.2 ng/mL
- concentration at 3 h [6]: 5.1 ng/mL
- concentration at 4 h [6]: 4 ng/mL
- concentration at 6 h [6]: 2.4 ng/mL
- concentration at 8 h [6]: 1.6 ng/mL
- concentration at 10 h [6]: 1.4 ng/mL
- concentration at 12 h [6]: 1.2 ng/mL
- concentration at 14 h [6]: 1 ng/mL
- concentration at 24 h [6]: 1.2 ng/mL
